Measurements as given in patent US5041567A, “Antibacterial monic acid derivatives” (Beecham Group plc, priority 1982, dated 1991).
In brackets after ≈: the same amount, converted by molar mass. Where two headings read alike, the source gives them in different places.

Key:
Bacillus subtilis 6633 = test: MIC against human bacteria in vitro; format: cell-based
Strep. pneumoniae CN33 = test: MIC against human bacteria in vitro; format: cell-based; conditions: Streptococcus pneumoniae; Strep. pneumoniae CN33; 5% chocolated horse blood agar, 18 hours; read-out: MIC
Staph. aureus Oxford = test: MIC against human bacteria in vitro; format: cell-based; conditions: Staphylococcus aureus; Staph. aureus Oxford; 5% chocolated horse blood agar, 18 hours; read-out: MIC
Staph. aureus W2827 = test: MIC against human bacteria in vitro; format: cell-based; conditions: Staphylococcus aureus; Staph. aureus W2827; 5% chocolated horse blood agar, 18 hours; read-out: MIC
[1] = tested on: Staph. aureus B4 (pen. resistant); test: MIC against veterinary bacteria in vitro; conditions: Staphylococcus aureus, 18 h
Method: (§1) The activity of the compounds of the Examples against various veterinarily important bacteria, was assayed in vitro using two-fold serial dilutions in Diagnostic Sensitivity Test Agar inoculated with 10^4 organisms.

Past. multocida PA2 = test: MIC against veterinary bacteria in vitro; conditions: Pasteurella multocida, PA2, 18 h
Method: as §1

E. coli ESS = test: MIC against human bacteria in vitro; format: cell-based; conditions: Escherichia coli
M. suipneumoniae UCD 1 = test: MIC against mycoplasma in vitro; format: cell-based; conditions: Mesomycoplasma hyopneumoniae, UCD1, 144 h; M. suipneumoniae UCD 1; 6 days, 37° C.; read-out: MIC
M. suipneumoniae MS 16 = test: MIC against mycoplasma in vitro; format: cell-based; conditions: Mesomycoplasma hyopneumoniae, MS16, 144 h
Strep. spp. 64/848-C = test: MIC against human bacteria in vitro; format: cell-based
Strep. agalactiae 2788-B = test: MIC against human bacteria in vitro; format: cell-based; conditions: Streptococcus agalactiae; Strep. agalactiae 2788-B; 5% chocolated horse blood agar, 18 hours; read-out: MIC
Strep. faecalis I = test: MIC against human bacteria in vitro; format: cell-based; conditions: Enterococcus faecalis
E. coli NCTC 10418 = test: MIC against human bacteria in vitro; format: cell-based; conditions: Escherichia coli
[2] = tested on: Strep. suis (group D) SPS11; test: MIC against veterinary bacteria in vitro; conditions: Streptococcus suis, 18 h
Method: as §1

Bord. bronchiseptica B09 = test: MIC against veterinary bacteria in vitro; conditions: Bordetella bronchiseptica, B09, 18 h
Method: as §1

Past. multocida PA1 = test: MIC against veterinary bacteria in vitro; conditions: Pasteurella multocida, PA1, 18 h
Method: as §1

Staph. aureus Russell = test: MIC against human bacteria in vitro; format: cell-based; conditions: Staphylococcus aureus; Staph. aureus Russell; 5% chocolated horse blood agar, 18 hours; read-out: MIC
Strep. agalactiae SPA1 = test: MIC against veterinary bacteria in vitro; conditions: Streptococcus agalactiae, SPA1, 18 h
Method: as §1

Strep. dysgalactiae SPD1 = test: MIC against veterinary bacteria in vitro; conditions: Streptococcus dysgalactiae, SPD1, 18 h
Method: as §1

[3] = tested on: Pasteurella multocida 1633; test: MIC against human bacteria in vitro; format: cell-based
E. coli E1 = test: MIC against veterinary bacteria in vitro; conditions: Escherichia coli, E1, 18 h
Method: as §1

M. suipneumoniae HK(2) = test: MIC against mycoplasma in vitro; format: cell-based; conditions: Mesomycoplasma hyopneumoniae, 144 h; M. suipneumoniae HK(2); 6 days, 37° C.; read-out: MIC
Bord. bronchiseptica B08 = test: MIC against veterinary bacteria in vitro; conditions: Bordetella bronchiseptica, B08, 18 h
Method: as §1

M. suipneumoniae LABER = test: MIC against mycoplasma in vitro; format: cell-based; conditions: Mesomycoplasma hyopneumoniae, 144 h
[4] = tested on: Corynebacterium xerosis 9755; test: MIC against human bacteria in vitro; format: cell-based
M. hyorhinis ATCC 23234 = test: MIC against mycoplasma in vitro; format: cell-based; conditions: Mesomycoplasma hyorhinis, ATCC23234, 144 h
K. aerogenes A = test: MIC against human bacteria in vitro; format: cell-based; conditions: Klebsiella aerogenes
P. mirabilis 889 = test: MIC against human bacteria in vitro; format: cell-based
S. dublin S7 = test: MIC against veterinary bacteria in vitro; conditions: Salmonella enterica, S7, 18 h
Method: as §1

M. hyorhinis ATCC 25021 = test: MIC against mycoplasma in vitro; format: cell-based; conditions: Mesomycoplasma hyorhinis, ATCC25021, 144 h
M. dispar NCTC 10125 = test: MIC against mycoplasma in vitro; format: cell-based; conditions: 144 h
[5] = tested on: M. suipneumoniae ATCC 25095; test: MIC against mycoplasma in vitro; format: cell-based; conditions: Mesomycoplasma hyopneumoniae, ATCC25095, 144 h
M. suipneumoniae TAM 6N = test: MIC against mycoplasma in vitro; format: cell-based; conditions: Mesomycoplasma hyopneumoniae, TAM6N, 144 h; M. suipneumoniae TAM 6N; 6 days, 37° C.; read-out: MIC
Sarcina lutea 8340 = test: MIC against human bacteria in vitro; format: cell-based
[6] = tested on: M. suipneumoniae PW/C/210; test: MIC against mycoplasma in vitro; format: cell-based; conditions: Mesomycoplasma hyopneumoniae, 144 h
[7] = E. coli ESS, 5% chocolated horse blood agar, 18 hours, read-out: MIC
[8] = Strep. faecalis I, 5% chocolated horse blood agar, 18 hours, read-out: MIC
[9] = NCTC10418, E. coli NCTC 10418, agar with 5% chocolated horse blood, 18 hours, 37° C., read-out: MIC
[10] = Pasteurella multocida 1633, 5% chocolated horse blood agar, 18 hours, read-out: MIC
[11] = Corynebacterium xerosis 9755, 5% chocolated horse blood agar, 18 hours, read-out: MIC
[12] = K. aerogenes A, 5% chocolated horse blood agar, 18 hours, read-out: MIC
[13] = Proteus mirabilis, P. mirabilis 889, 5% chocolated horse blood agar, 18 hours, read-out: MIC
[14] = M. dispar NCTC 10125, 6 days, 37° C., read-out: MIC
[15] = Micrococcus luteus, Sarcina lutea 8340, 5% chocolated horse blood agar, 18 hours, read-out: MIC
[16] = M. suipneumoniae MS 16, 6 days, 37° C., read-out: MIC
[17] = M. suipneumoniae ATCC 25095, 6 days, 37° C., read-out: MIC
[18] = M. suipneumoniae PW/C/210, 6 days, 37° C., read-out: MIC

Row | SMILES | MIC (Strep. pneumoniae CN33) | MIC (Staph. aureus Oxford) | MIC (Staph. aureus W2827) | MIC [1] | MIC (Past. multocida PA2) | MIC (E. coli ESS; [7]) | MIC (M. suipneumoniae UCD 1) | MIC (Strep. agalactiae 2788-B) | MIC (Strep. faecalis I; [8]) | MIC [2] | MIC (Bord. bronchiseptica B09) | MIC (Past. multocida PA1) | MIC (Staph. aureus Russell) | MIC (Strep. agalactiae SPA1) | MIC (Strep. dysgalactiae SPD1) | MIC (E. coli E1) | MIC (M. suipneumoniae HK(2)) | MIC (Bord. bronchiseptica B08) | MIC (S. dublin S7) | MIC (M. suipneumoniae TAM 6N) | other results
1 | C/C(=C\c1ncc(-c2ccccc2)o1)C[C@@H]1OC[C@H](C[C@@H]2O[C@H]2[C@@H](C)[C@H](C)O)[C@@H](O)[C@H]1O [Example 1, 2-(1-normon-2-yl)-5-phenyloxazole A] | 2.5 µg/mL (≈ 5.64 µM) | 5 µg/mL (≈ 11.3 µM) | 5 µg/mL (≈ 11.3 µM) | 1.25 µg/mL (≈ 2.82 µM) | 1.25 µg/mL (≈ 2.82 µM) | 10 µg/mL (≈ 22.5 µM) | 1 µg/mL (≈ 2.25 µM) | 5 µg/mL (≈ 11.3 µM) | ≥ 100 µg/mL | 20 µg/mL (≈ 45.1 µM) | 20 µg/mL (≈ 45.1 µM) | 10 µg/mL (≈ 22.5 µM) | 5 µg/mL (≈ 11.3 µM) | 1.25 µg/mL (≈ 2.82 µM) | 0.625 µg/mL (≈ 1.41 µM) | > 80 µg/mL | 1 µg/mL (≈ 2.25 µM) | 80 µg/mL (≈ 180 µM) | > 80 µg/mL | 1 µg/mL (≈ 2.25 µM) | MIC (Bacillus subtilis 6633; Bacillus subtilis 6633, 5% chocolated horse blood agar, 18 hours, read-out: MIC): 2.5 µg/mL (≈ 5.64 µM); MIC (M. suipneumoniae MS 16): 0.5 µg/mL (≈ 1.13 µM); MIC (Strep. spp. 64/848-C; Strep. spp. 64/848-C, 5% chocolated horse blood agar, 18 hours, read-out: MIC): 2.5 µg/mL (≈ 5.64 µM); MIC (E. coli NCTC 10418; [9]): > 100 µg/mL; MIC [3, 10]: 10 µg/mL (≈ 22.5 µM); MIC (M. suipneumoniae LABER): 0.5 µg/mL (≈ 1.13 µM); MIC [4, 11]: > 100 µg/mL; MIC (M. hyorhinis ATCC 23234): 0.5 µg/mL (≈ 1.13 µM); MIC (K. aerogenes A; [12]): > 100 µg/mL; MIC (P. mirabilis 889; [13]): > 100 µg/mL; MIC (M. hyorhinis ATCC 25021): 0.5 µg/mL (≈ 1.13 µM); MIC (M. dispar NCTC 10125; [14]): 0.1 µg/mL (≈ 0.225 µM); MIC [5]: 0.5 µg/mL (≈ 1.13 µM); MIC (Sarcina lutea 8340; [15]): ≥ 100 µg/mL; MIC [6]: 0.5 µg/mL (≈ 1.13 µM)
2 | COC(=O)CCCCCCCc1cnc(/C=C(\C)C[C@@H]2OC[C@H](C[C@@H]3O[C@H]3[C@@H](C)[C@H](C)O)[C@@H](O)[C@H]2O)o1 [Example 7, 5-(7-Methoxycarbonylheptyl)-2-(1-normon-2-yl)oxazole A] | 25 µg/mL (≈ 47.7 µM) | – | 25 µg/mL (≈ 47.7 µM) | 5 µg/mL (≈ 9.55 µM) | 20 µg/mL (≈ 38.2 µM) | – | > 10 µg/mL | 25 µg/mL (≈ 47.7 µM) | – | 80 µg/mL (≈ 153 µM) | 40 µg/mL (≈ 76.4 µM) | 40 µg/mL (≈ 76.4 µM) | 25 µg/mL (≈ 47.7 µM) | 5 µg/mL (≈ 9.55 µM) | 2.5 µg/mL (≈ 4.77 µM) | > 80 µg/mL | > 10 µg/mL | 40 µg/mL (≈ 76.4 µM) | > 80 µg/mL | > 10 µg/mL | MIC (Bacillus subtilis 6633; Bacillus subtilis, 6633, 18 h): 2.5 µg/mL (≈ 4.77 µM); MIC (E. coli ESS; 18 h): 0.5 µg/mL (≈ 0.955 µM); MIC (M. suipneumoniae MS 16; [16]): 10 µg/mL (≈ 19.1 µM); MIC (Strep. spp. 64/848-C; 18 h): 10 µg/mL (≈ 19.1 µM); MIC (Strep. faecalis I; 18 h): > 100 µg/mL; MIC (E. coli NCTC 10418; NCTC10418, 18 h): > 100 µg/mL; MIC ([3]; Pasteurella multocida, 1633, 18 h): 2.5 µg/mL (≈ 4.77 µM); MIC (M. suipneumoniae LABER; M. suipneumoniae LABER, 6 days, 37° C., read-out: MIC): 10 µg/mL (≈ 19.1 µM); MIC ([4]; Corynebacterium xerosis, 9755, 18 h): > 100 µg/mL; MIC (M. hyorhinis ATCC 23234; M. hyorhinis ATCC 23234, 6 days, 37° C., read-out: MIC): 10 µg/mL (≈ 19.1 µM); MIC (K. aerogenes A; 18 h): > 100 µg/mL; MIC (P. mirabilis 889; Proteus mirabilis, 889, 18 h): > 100 µg/mL; MIC (M. hyorhinis ATCC 25021; M. hyorhinis ATCC 25021, 6 days, 37° C., read-out: MIC): 10 µg/mL (≈ 19.1 µM); MIC (M. dispar NCTC 10125; [14]): 2.5 µg/mL (≈ 4.77 µM); MIC [5, 17]: 10 µg/mL (≈ 19.1 µM); MIC (Sarcina lutea 8340; Micrococcus luteus, 8340, 18 h): > 100 µg/mL; MIC [6, 18]: 10 µg/mL (≈ 19.1 µM)
3 | C/C(=C\c1ncc(-c2ccc(CO)cc2)o1)C[C@@H]1OC[C@H](C[C@@H]2O[C@H]2[C@@H](C)[C@H](C)O)[C@@H](O)[C@H]1O [Example 13, 5-p-Hydroxymethylphenyl-2-(1-normon-2-yl) oxazole A] | 4 µg/mL (≈ 8.45 µM) | 4 µg/mL (≈ 8.45 µM) | 4 µg/mL (≈ 8.45 µM) | 1.25 µg/mL (≈ 2.64 µM) | 0.312 µg/mL (≈ 0.659 µM) | 2 µg/mL (≈ 4.22 µM) | 0.25 µg/mL (≈ 0.528 µM) | 2 µg/mL (≈ 4.22 µM) | > 128 µg/mL | 10 µg/mL (≈ 21.1 µM) | 20 µg/mL (≈ 42.2 µM) | 2.5 µg/mL (≈ 5.28 µM) | 4 µg/mL (≈ 8.45 µM) | 10 µg/mL (≈ 21.1 µM) | 0.625 µg/mL (≈ 1.32 µM) | > 80 µg/mL | 0.25 µg/mL (≈ 0.528 µM) | > 80 µg/mL | > 80 µg/mL | 0.25 µg/mL (≈ 0.528 µM) | MIC (Bacillus subtilis 6633; Bacillus subtilis, 6633, 18 h): 1 µg/mL (≈ 2.11 µM); MIC (M. suipneumoniae MS 16; [16]): 0.1 µg/mL (≈ 0.211 µM); MIC (Strep. spp. 64/848-C; 18 h): 1 µg/mL (≈ 2.11 µM); MIC (E. coli NCTC 10418; [9]): > 128 µg/mL; MIC [3, 10]: 2 µg/mL (≈ 4.22 µM); MIC [4, 11]: 64 µg/mL (≈ 135 µM); MIC (M. hyorhinis ATCC 23234): 0.1 µg/mL (≈ 0.211 µM); MIC (K. aerogenes A; [12]): > 128 µg/mL; MIC (P. mirabilis 889; [13]): > 128 µg/mL; MIC (M. hyorhinis ATCC 25021): 0.1 µg/mL (≈ 0.211 µM); MIC (M. dispar NCTC 10125): 0.05 µg/mL (≈ 0.106 µM); MIC [5, 17]: 0.25 µg/mL (≈ 0.528 µM); MIC (Sarcina lutea 8340; [15]): 128 µg/mL (≈ 270 µM); MIC [6, 18]: 0.1 µg/mL (≈ 0.211 µM)
